Assay results from ChEMBL document CHEMBL2086254, “Synthesis and identification of novel indolo[2,3-a]pyrimido[5,4-c]carbazoles as a new class of anti-cancer agents” (Eur J Med Chem, 2012).
Values belong to the compound of their own block, whether it stands above or below them. Active and inactive are the calls of the source. The rule behind the calls is not given here.

What was measured:
RXF 393 = experiment: Cytotoxicity against human RXF393 cells assessed as cell growth at 10 uM after 48 hrs by SRB assay relative to control; type: functional; conditions: RXF 393, 48 h, read-out: Activity
TK-10 = experiment: Cytotoxicity against human TK10 cells assessed as cell growth at 10 uM after 48 hrs by SRB assay relative to control; type: functional; conditions: TK-10, 48 h, read-out: Activity
PC-3 = experiment: Cytotoxicity against human PC3 cells assessed as cell growth at 10 uM after 48 hrs by SRB assay relative to control; type: functional; conditions: PC-3, 48 h, read-out: Activity
OVCAR-5 = experiment: Cytotoxicity against human OVCAR5 cells assessed as cell growth at 10 uM after 48 hrs by SRB assay relative to control; type: functional; conditions: OVCAR-5, 48 h, read-out: Activity
SN12C = experiment: Cytotoxicity against human SN12C cells assessed as cell growth at 10 uM after 48 hrs by SRB assay relative to control; type: functional; conditions: read-out: Activity
[1] = target: DNA topoisomerase 2-alpha (Homo sapiens) (UniProt P11388); experiment: Inhibition of human DNA topoisomerase 2 at 100 uM after 1 hr by agarose gel circular DNA decatenation assay
MCF7 = experiment: Cytotoxicity against human MCF7 cells assessed as cell growth at 10 uM after 48 hrs by SRB assay relative to control; type: functional; conditions: MCF7, 48 h, read-out: Activity
CCRF-CEM = experiment: Cytotoxicity against human CCRF-CEM cells assessed as cell growth at 10 uM after 48 hrs by SRB assay relative to control; type: functional; conditions: read-out: Activity
HL-60 = experiment: Cytotoxicity against human HL60 cells assessed as cell growth at 10 uM after 48 hrs by SRB assay relative to control; type: functional; conditions: HL-60, 48 h, read-out: Activity
HCT-116 = experiment: Cytotoxicity against human HCT116 cells assessed as cell growth at 10 uM after 48 hrs by SRB assay relative to control; type: functional; conditions: HCT-116, 48 h, read-out: Activity
HT-29 = experiment: Cytotoxicity against human HT-29 cells assessed as cell growth at 10 uM after 48 hrs by SRB assay relative to control; type: functional; conditions: HT-29, 48 h, read-out: Activity
KM12 = experiment: Cytotoxicity against human KM12 cells assessed as cell growth at 10 uM after 48 hrs by SRB assay relative to control; type: functional; conditions: KM12, 48 h, read-out: Activity
SW-620 = experiment: Cytotoxicity against human SW620 cells assessed as cell growth at 10 uM after 48 hrs by SRB assay relative to control; type: functional; conditions: SW-620, 48 h, read-out: Activity
SK-MEL-2 = experiment: Cytotoxicity against human SK-MEL-2 cells assessed as cell growth at 10 uM after 48 hrs by SRB assay relative to control; type: functional; conditions: SK-MEL-2, 48 h, read-out: Activity
ACHN = experiment: Cytotoxicity against human ACHN cells assessed as cell growth at 10 uM after 48 hrs by SRB assay relative to control; type: functional; conditions: read-out: Activity
SR = experiment: Cytotoxicity against human SR cells assessed as cell growth at 10 uM after 48 hrs by SRB assay relative to control; type: functional; conditions: read-out: Activity
MOLT-4 = experiment: Cytotoxicity against human MOLT4 cells assessed as cell growth at 10 uM after 48 hrs by SRB assay relative to control; type: functional; conditions: MOLT-4, 48 h, read-out: Activity
RPMI-8226 = experiment: Cytotoxicity against human RPMI8226 cells assessed as cell growth at 10 uM after 48 hrs by SRB assay relative to control; type: functional; conditions: RPMI-8226, 48 h, read-out: Activity
HOP-62 = experiment: Cytotoxicity against human HOP62 cells assessed as cell growth at 10 uM after 48 hrs by SRB assay relative to control; type: functional; conditions: HOP-62, 48 h, read-out: Activity
NCI-H226 = experiment: Cytotoxicity against human NCI-H226 cells assessed as cell growth at 10 uM after 48 hrs by SRB assay relative to control; type: functional; conditions: NCI-H226, 48 h, read-out: Activity
OVCAR-4 = experiment: Cytotoxicity against human OVCAR4 cells assessed as cell growth at 10 uM after 48 hrs by SRB assay relative to control; type: functional; conditions: OVCAR-4, 48 h, read-out: Activity
MDA-MB-231 = experiment: Cytotoxicity against human MDA-MB-231 cells assessed as cell growth at 10 uM after 48 hrs by SRB assay relative to control; type: functional; conditions: MDA-MB-231, 48 h, read-out: Activity
NCI-H322M = experiment: Cytotoxicity against human NCI-H322M cells assessed as cell growth at 10 uM after 48 hrs by SRB assay relative to control; type: functional; conditions: read-out: Activity
COLO 205 = experiment: Cytotoxicity against human COLO205 cells assessed as cell growth at 10 uM after 48 hrs by SRB assay relative to control; type: functional; conditions: COLO 205, 48 h, read-out: Activity
786-0 = experiment: Cytotoxicity against human 786-0 cells assessed as cell growth at 10 uM after 48 hrs by SRB assay relative to control; type: functional; conditions: 786-0, 48 h, read-out: Activity

DNA topoisomerase 2-alpha (Homo sapiens), sequence (P11388 whole entry): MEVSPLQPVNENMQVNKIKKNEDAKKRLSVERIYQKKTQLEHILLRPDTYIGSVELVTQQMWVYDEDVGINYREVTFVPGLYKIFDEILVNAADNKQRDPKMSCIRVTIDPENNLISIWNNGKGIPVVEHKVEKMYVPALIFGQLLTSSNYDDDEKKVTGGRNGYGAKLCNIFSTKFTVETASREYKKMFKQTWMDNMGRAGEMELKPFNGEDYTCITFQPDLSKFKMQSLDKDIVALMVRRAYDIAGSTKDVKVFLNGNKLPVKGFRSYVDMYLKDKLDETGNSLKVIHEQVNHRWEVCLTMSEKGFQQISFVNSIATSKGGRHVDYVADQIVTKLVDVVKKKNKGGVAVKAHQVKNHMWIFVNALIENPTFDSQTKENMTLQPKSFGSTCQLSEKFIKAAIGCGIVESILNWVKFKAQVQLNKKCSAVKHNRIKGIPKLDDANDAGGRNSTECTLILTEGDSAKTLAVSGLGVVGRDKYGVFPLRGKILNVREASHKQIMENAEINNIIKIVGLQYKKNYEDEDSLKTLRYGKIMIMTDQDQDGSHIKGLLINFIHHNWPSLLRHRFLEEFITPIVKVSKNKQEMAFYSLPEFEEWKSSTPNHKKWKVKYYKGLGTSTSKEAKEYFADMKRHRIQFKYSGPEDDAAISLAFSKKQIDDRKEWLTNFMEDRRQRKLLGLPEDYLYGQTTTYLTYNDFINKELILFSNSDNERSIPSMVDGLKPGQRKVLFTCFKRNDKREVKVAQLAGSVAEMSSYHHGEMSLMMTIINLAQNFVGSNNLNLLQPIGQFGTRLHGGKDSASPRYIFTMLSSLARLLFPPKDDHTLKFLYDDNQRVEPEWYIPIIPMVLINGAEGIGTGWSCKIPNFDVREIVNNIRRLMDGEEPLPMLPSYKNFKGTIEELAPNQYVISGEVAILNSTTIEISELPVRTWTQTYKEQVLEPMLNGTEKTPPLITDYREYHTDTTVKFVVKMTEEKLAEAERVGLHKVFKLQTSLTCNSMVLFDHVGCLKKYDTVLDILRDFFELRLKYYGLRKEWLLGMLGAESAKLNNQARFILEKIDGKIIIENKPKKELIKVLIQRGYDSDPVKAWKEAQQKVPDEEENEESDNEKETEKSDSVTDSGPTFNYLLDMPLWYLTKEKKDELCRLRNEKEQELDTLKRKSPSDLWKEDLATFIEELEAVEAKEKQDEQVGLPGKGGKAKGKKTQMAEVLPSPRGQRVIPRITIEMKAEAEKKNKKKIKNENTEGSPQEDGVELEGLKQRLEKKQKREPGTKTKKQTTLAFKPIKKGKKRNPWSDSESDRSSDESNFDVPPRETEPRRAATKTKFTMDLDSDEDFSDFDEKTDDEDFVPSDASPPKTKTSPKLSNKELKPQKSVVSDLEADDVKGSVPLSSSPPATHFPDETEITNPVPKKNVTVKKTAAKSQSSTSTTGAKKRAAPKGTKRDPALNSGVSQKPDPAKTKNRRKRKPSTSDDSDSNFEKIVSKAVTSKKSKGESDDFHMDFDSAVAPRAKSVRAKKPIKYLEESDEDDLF

inhibition [1]: inactive
SMILES: Cn1c2ccccc2c2c3c(=O)[nH]c(N)nc3c3c4cccnc4n(C)c3c21
growth at 10 µM (RXF 393): 87.4%
growth at 10 µM (TK-10): 76.4%
growth at 10 µM (PC-3): 71%
growth at 10 µM (OVCAR-5): 98.8%
growth at 10 µM (SN12C): 91%
growth at 10 µM (MCF7): 45.2%
growth at 10 µM (CCRF-CEM): 65.3%
growth at 10 µM (HL-60): 72.8%
growth at 10 µM (HCT-116): 63%
growth at 10 µM (HT-29): 78%
growth at 10 µM (KM12): 59%
growth at 10 µM (SW-620): 72%
growth at 10 µM (SK-MEL-2): 68.5%
growth at 10 µM (ACHN): 54.1%
growth at 10 µM (SR): 63.3%
growth at 10 µM (MOLT-4): 74.4%
growth at 10 µM (RPMI-8226): 64.4%
growth at 10 µM (HOP-62): 84.1%
growth at 10 µM (NCI-H226): 65%
growth at 10 µM (OVCAR-4): 80.1%
growth at 10 µM (MDA-MB-231): 79.4%

inhibition [1]: inactive
SMILES: Cn1cc(-c2[nH]c(=S)[nH]c(=O)c2-c2cn(C)c3ccccc23)c2ccccc21
growth at 10 µM (RXF 393): 123%
growth at 10 µM (TK-10): 96.3%
growth at 10 µM (PC-3): 92.1%
growth at 10 µM (OVCAR-5): 107%
growth at 10 µM (SN12C): 103%
growth at 10 µM (MCF7): 68.2%
growth at 10 µM (CCRF-CEM): 99%
growth at 10 µM (HL-60): 104%
growth at 10 µM (HCT-116): 98.8%
growth at 10 µM (HT-29): 112%
growth at 10 µM (KM12): 97.9%
growth at 10 µM (SW-620): 98%
growth at 10 µM (SK-MEL-2): 111%
growth at 10 µM (ACHN): 95.5%
growth at 10 µM (SR): 93.9%
growth at 10 µM (MOLT-4): 103%
growth at 10 µM (RPMI-8226): 91%
growth at 10 µM (HOP-62): 92.3%
growth at 10 µM (NCI-H226): 87.1%
growth at 10 µM (NCI-H322M): 96.5%
growth at 10 µM (COLO 205): 100%
growth at 10 µM (OVCAR-4): 103%
growth at 10 µM (MDA-MB-231): 91.7%
growth at 10 µM (786-0): 107%

SMILES: Cn1cc(-c2c(-c3cn(C)c4ncccc34)nc(N)[nH]c2=O)c2ccccc21
growth at 10 µM (RXF 393): 124%
growth at 10 µM (TK-10): 113%
growth at 10 µM (PC-3): 84.2%
growth at 10 µM (OVCAR-5): 106%
growth at 10 µM (SN12C): 104%
growth at 10 µM (MCF7): 86%
growth at 10 µM (CCRF-CEM): 92.5%
growth at 10 µM (HL-60): 105%
growth at 10 µM (HCT-116): 98%
growth at 10 µM (HT-29): 98.5%
growth at 10 µM (KM12): 102%
growth at 10 µM (SW-620): 97.5%
growth at 10 µM (SK-MEL-2): 105%
growth at 10 µM (ACHN): 87.6%
growth at 10 µM (SR): 90.4%
growth at 10 µM (MOLT-4): 97.1%
growth at 10 µM (RPMI-8226): 85.1%
growth at 10 µM (HOP-62): 91.5%
growth at 10 µM (NCI-H226): 84.2%
growth at 10 µM (NCI-H322M): 95.3%
growth at 10 µM (COLO 205): 106%
growth at 10 µM (OVCAR-4): 88%
growth at 10 µM (MDA-MB-231): 96.4%
growth at 10 µM (786-0): 106%
